System: 885512-296-R-J2-PDC complex spheroid viability
Assay: Anticancer human tumor 885512-296-R-J2-PDC patient-derived breast carcinoma cell line growth inhibition
Conditions: for IC50: curve of first compound; for viability, T/C: stronger effect = lower value
How it was run: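 Multicellular complex spheroids of tumor cells with human endothelial cells (HUVEC) and mesenchymal stem cells; the LSD1 inhibitor iadademstat was combined with standard-of-care or investigational agents. Top concentration at or near clinical Cmax, half-log dilutions; final DMSO ≤0.25%.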

[1] = second compound 0.1 µM, first compound 0.0316 µM
[2] = second compound 0.1 µM, first compound 0.1 µM
[3] = second compound 0.1 µM, first compound 0.316 µM
[4] = second compound 0.1 µM, first compound 1 µM
[5] = second compound 0.1 µM, first compound 3.16 µM
[6] = second compound 0.1 µM, first compound 10 µM
[7] = second compound 0.316 µM, first compound 0.0316 µM
[8] = second compound 0.316 µM, first compound 0.1 µM
[9] = second compound 0.316 µM, first compound 0.316 µM
[10] = second compound 0.316 µM, first compound 1 µM
[11] = second compound 0.316 µM, first compound 3.16 µM
[12] = second compound 0.316 µM, first compound 10 µM
[13] = second compound 1 µM, first compound 0.0316 µM
[14] = second compound 1 µM, first compound 0.1 µM
[15] = second compound 1 µM, first compound 0.316 µM
[16] = second compound 1 µM, first compound 1 µM
[17] = second compound 1 µM, first compound 3.16 µM
[18] = second compound 1 µM, first compound 10 µM
[19] = second compound 3.16 µM, first compound 0.0316 µM
[20] = second compound 3.16 µM, first compound 0.1 µM
[21] = second compound 3.16 µM, first compound 0.316 µM
[22] = second compound 3.16 µM, first compound 1 µM
[23] = second compound 3.16 µM, first compound 3.16 µM
[24] = second compound 3.16 µM, first compound 10 µM
[25] = second compound 10 µM, first compound 0.0316 µM
[26] = second compound 10 µM, first compound 0.1 µM
[27] = second compound 10 µM, first compound 0.316 µM
[28] = second compound 10 µM, first compound 1 µM
[29] = second compound 10 µM, first compound 3.16 µM
[30] = second compound 10 µM, first compound 10 µM
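Note: spheroids exposed to agents for 7 days before viability read.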

Row | SMILES | IC50 (second compound 0.1 µM) [µM] | IC50 (second compound 0.316 µM) [µM] | IC50 (second compound 1 µM) [µM] | IC50 (second compound 3.16 µM) [µM] | IC50 (second compound 10 µM) [µM] | viability, T/C [1] [%] | viability, T/C [2] [%] | viability, T/C [3] [%] | viability, T/C [4] [%] | viability, T/C [7] [%] | viability, T/C [8] [%] | viability, T/C [9] [%] | viability, T/C [10] [%] | viability, T/C [13] [%] | viability, T/C [14] [%] | viability, T/C [15] [%] | viability, T/C [16] [%] | viability, T/C [19] [%] | viability, T/C [20] [%] | viability, T/C [21] [%] | also measured
1 | CC(C)c1c(-c2ccccc2)nc2c(C#N)c[nH]n2c1=O + NC1CC1c1ccc(-c2cccc(O)c2)cc1 | > 10 | > 10 | > 10 | > 10 | 6.76 | 120 | 128 | 127 | 118 | 140 | 124 | 128 | 128 | 132 | 121 | 118 | 118 | 138 | 131 | 118 | viability, T/C [5]: 119%; viability, T/C [6]: 84.8%; viability, T/C [11]: 137%; viability, T/C [12]: 87.4%; viability, T/C [17]: 125%; viability, T/C [18]: 74.9%; viability, T/C [22]: 108%; viability, T/C [23]: 124%; viability, T/C [24]: 71.9%; viability, T/C [25]: 88%; viability, T/C [26]: 88.3%; viability, T/C [27]: 88.5%; viability, T/C [28]: 70.1%; viability, T/C [29]: 72.9%; viability, T/C [30]: 40.1%
2 | CC1COCCN1c1cc(-c2ccnn2C)c2ccnc(-c3ccn[nH]3)c2n1 (stereo not given) + NC1CC1c1ccc(-c2cccc(O)c2)cc1 | < 0.00316 | < 0.00316 | < 0.00316 | < 0.00316 | < 0.00316 | 2.05 | 1.94 | 2.98 | 3.66 | 2.44 | 2 | 3.18 | 4.22 | 2.3 | 2.21 | 3.06 | 4.25 | 1.89 | 2.1 | 2.93 | viability, T/C (second compound 0.1 µM, first compound 0.00316 µM): 3.29%; viability, T/C (second compound 0.1 µM, first compound 0.01 µM): 2.63%; viability, T/C (second compound 0.316 µM, first compound 0.00316 µM): 4.19%; viability, T/C (second compound 0.316 µM, first compound 0.01 µM): 3.06%; viability, T/C (second compound 1 µM, first compound 0.00316 µM): 3.96%; viability, T/C (second compound 1 µM, first compound 0.01 µM): 3.23%; viability, T/C (second compound 3.16 µM, first compound 0.00316 µM): 2.66%; viability, T/C (second compound 3.16 µM, first compound 0.01 µM): 2.58%; viability, T/C [22]: 4.29%; viability, T/C (second compound 10 µM, first compound 0.00316 µM): 3.44%; viability, T/C (second compound 10 µM, first compound 0.01 µM): 2.73%; viability, T/C [25]: 1.93%; viability, T/C [26]: 2.12%; viability, T/C [27]: 2.49%; viability, T/C [28]: 4.01%
3 | COc1ccc([C@@H](O)c2cc(-c3ncnc4cc(N5CCOCC5)ccc34)c(F)cc2Cl)nn1 + NC1CC1c1ccc(-c2cccc(O)c2)cc1 | 3.51 | 3.86 | 3.33 | 1.45 | 0.448 | 126 | 127 | 94.4 | 86.9 | 111 | 121 | 103 | 94.7 | 98.3 | 109 | 87.9 | 78.9 | 108 | 104 | 71.6 | viability, T/C [5]: 54.5%; viability, T/C [6]: 12.9%; viability, T/C [11]: 57.6%; viability, T/C [12]: 11.8%; viability, T/C [17]: 52.2%; viability, T/C [18]: 11.8%; viability, T/C [22]: 58.8%; viability, T/C [23]: 35.8%; viability, T/C [24]: 9.34%; viability, T/C [25]: 78.4%; viability, T/C [26]: 72.1%; viability, T/C [27]: 50.6%; viability, T/C [28]: 39.7%; viability, T/C [29]: 25.5%; viability, T/C [30]: 6.59%

— PubChem BioAssay AID1918946 (Molecular Pharmacology Branch, DTP, NCI, 2023)
